System: Cisd2 promoter with firefly luciferase reporter
Assay: Cisd2-luciferase reporter assay in HEK293-CISD2 cells
Assay type: cell-based
Settings: Homo sapiens, 24 hours incubation, luciferase luminescence
Summary of the method: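 HEK293 cells stably carrying Cisd2 promoter-firefly luciferase, seeded at 3×10^3 cells/well, exposed to compounds 24 h at 37 °C; luminescence read after 5 min ONE-Glo at room temperature. EC50 reported in classes: A <1 μM, B 1-5 μM, C 5-10 μM.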

| SMILES | EC50 |
| --- | --- |
| O=C(CS(=O)(=O)c1ccc(C(F)F)s1)N1Cc2ccccc2C1 [Compound 105, 2-{[5-(difluoromethyl)thiophen-2-yl]sulfonyl}-1-(1,3-dihydro-2H-isoindol-2-yl)ethanone] | 5000 to 10000 nM |
| O=C(CCS(=O)(=O)c1ccccc1)N1Cc2ccccc2C1 [Compound 107, 1-(1,3-dihydro-2H-isoindol-2-yl)-3-(phenylsulfonyl)propan-1-one] | < 1000 nM |
| O=C(CCS(=O)(=O)c1cccc(F)n1)N1Cc2ccccc2C1 [Compound 108, 1-(1,3-dihydro-2H-isoindol-2-yl)-3-[(6-fluoropyridin-2-yl)sulfonyl]propan-1-one] | 1000 to 5000 nM |
| O=C(CS(=O)(=O)c1ncco1)N1Cc2ccc(F)cc2C1 [Compound 109, 1-(5-fluoro-1,3-dihydro-2H-isoindol-2-yl)-2-(1,3-oxazol-2-ylsulfonyl)ethanone] | < 1000 nM |

Continued, values first:

| EC50 | SMILES |
| --- | --- |
| < 1000 nM | O=C(CS(=O)(=O)c1ncco1)N1Cc2ccccc2C1 [Compound 104, 1-(1,3-dihydro-2H-isoindol-2-yl)-2-(1,3-oxazol-2-ylsulfonyl)ethanone] |
| < 1000 nM | O=C(CCS(=O)(=O)c1ccccc1Cl)N1Cc2ccccc2C1 [Compound 106, 3-[(2-chlorophenyl)sulfonyl]-1-(1,3-dihydro-2H-isoindol-2-yl)propan-1-one] |
